Test results reported in patent US10894058B2, “Method for producing solid dispersion containing hardly soluble polyphenol” (KAO CORPORATION, priority 2014, dated 2021).
Converted amounts (≈) assume the structure as drawn.

Experiments:
[1] = Evaluation of solubility: concentration of hardly soluble polyphenol dissolved in ion-exchanged water, quantified by HPLC; assay type: physicochemical; details: sample added to ion-exchanged water at 1 g/L, shaken at 25° C. for 5 minutes, filtered 0.8 μm
Experimental: Hardly soluble polyphenols were each quantified by a gradient method using a high-performance liquid chromatograph manufactured by Hitachi, Ltd. with a column Cadenza CD-C18 (4.6 mmφ×150 mm, 3 μm) manufactured by Imtakt Corporation at a column temperature of 40° C.
A mobile phase, solution A, was 0.05 mol/L acetic acid aqueous solution, and the other mobile phase, solution B, was acetonitrile. Flow rate was 1.0 mL/min. Gradient conditions are shown below.
In addition, ellagic acid was quantified using the same device except that only gradient conditions were set as shown below.
The sample injection volume was 10 μL, and quantification was carried out on the basis of an absorbance at a wavelength of 254 nm.
A sample was added to ion-exchanged water at 1 g/L, and the resultant was shaken at 25° C. for 5 minutes. After that, the resultant was filtered with a cellulose acetate filter having a pore size of 0.8 μm, and the concentration of a hardly soluble polyphenol dissolved was measured by the above-mentioned quantification method.

[2] = cited from earlier work
[3] = X-ray diffraction analysis: crystallinity degree of ellagic acid; assay type: physicochemical; details: powder X-ray diffraction, FIG. 1 to FIG. 3
Experimental: The crystallinity degree of the hardly soluble polyphenol may be calculated by the following method. First, diffraction intensity values determined by an X-ray diffraction method are subjected to peak separation into a crystalline diffraction line and an amorphous halo through profile fitting without considering effects of incoherent scattering, a lattice defect, and the like. Next, the crystallinity degree of a hardly soluble polyphenol is calculated by the following calculation equation (2) from the resultant integrated intensities of the respective peaks: Crystallinity degree (%) of hardly soluble polyphenol=[ΣIα/(ΣIα+ΣIam)]×100 (2) where ΣIα represents a sum of integrated intensities of respective peaks in a crystalline diffraction line, and ΣIam represents a sum of integrated intensities of respective peaks in a diffraction line of an amorphous part.
An X-ray diffraction intensity was measured using “Mini Flex II” manufactured by Rigaku Corporation under the conditions of: an X-ray source of Cu/Kα-radiation; a tube voltage of 30 kV; a tube current of 15 mA; a measurement range of from 5° to 40° in terms of a diffraction angle; and an X-ray scan speed of 10°/min. A sample for measurement was prepared by compressing a pellet having an area of 400 mm^2 and a thickness of 0.5 mm.

O.O.O=c1c(O)c(-c2ccc(O)c(O)c2)oc2cc(O)cc(O)c12 [Comparative Example 5, Quercetin dihydrate]
Amount of quercetin dissolved [1]: 0.005 g/L

COc1cc(/C=C/C(=O)CC(=O)/C=C/c2ccc(O)c(OC)c2)ccc1O [Comparative Example 7, Curcumin]
Amount of curcumin dissolved [1]: 0.001 g/L

O=c1oc2c(O)c(O)cc3c(=O)oc4c(O)c(O)cc1c4c23 [Comparative Example 1, Ellagic acid]
solubility in water (25° C.) [2]: 5 µg/mL (≈ 16.5 µM)
crystallinity degree of ellagic acid [3]: 87%
Amount of ellagic acid dissolved [1]: 0.0053 g/L

O=C1C[C@@H](c2ccc(O)cc2)Oc2cc(O)cc(O)c21 [Comparative Example 12, Naringenin]
Amount of naringenin dissolved [1]: 0.008 g/L

Oc1ccc(C=Cc2cc(O)cc(O)c2)cc1 [Comparative Example 11, Resveratrol]
Amount of resveratrol dissolved [1]: 0.03 g/L

COc1ccc(-c2cc(=O)c3c(OC)c(OC)c(OC)c(OC)c3o2)cc1OC [Comparative Example 8, Nobiletin]
Amount of nobiletin dissolved [1]: 0.007 g/L

c1cc2c(cc1[C@H]1OC[C@H]3[C@@H]1CO[C@@H]3c1ccc3c(c1)OCO3)OCO2 [Comparative Example 9, Sesamin]
Amount of sesamin dissolved [1]: 0.0001 g/L
